The values that follow come from patent publication US20160216259A1, “ISOTHERMAL TITRATION CALORIMETRY METHODS FOR EVALUATION OF THERMODYNAMIC BINDING PROPERTIES” (The Penn State Research Foundation, priority 2015, published 2016).

Values joined by “and” are separate entries in the source; they are usually repeats but may differ in a detail not shown here. Equal entries are not always repeated. Where two headings read alike, the source gives them in different places. Marks after values point to notes of the source that are not given here.

The conditions of assay [1]: for ln K: Tricine pH 8.5, 25° C.
Protocol: The titrations were performed on a NanoITC (TA Instruments, New Castle, Del.) with gold cells with a cell volume of 1 mL. ITC experiments were carried out at 25° C. and the stirring speed was 250 rpm. For the single independent binding experiment, ligand of 20 mM in 100 μL syringe and for the competitive binding site and two independent binding sites model, ligand of 10 mM in 250 μL syringe were used. The injection rate was varied 1.7-10 μL/min for the continuous injection mode under setting tab in ITCRun software. […] The first data point for the incremental injection mode and data for the initial 10 μL of injection for the continuous injection mode is excluded for data fitting with binding models due to reduced amount of the heat flow.
Binding of Ba^2+ and EDTA were performed and analyzed with the single independent binding site model in order to obtain the confidence intervals depending on the number of injections.
The number of injections for the incremental injection experiment was 36 with an injection volume of 2.5 μL. An injection rate of 1.7 μL/min was utilized in the continuous injection experiment. The fit for the continuous injection method was done after 0.1 mM of ligand had been injected.
The experimental time for incremental injection mode experiment was ˜6.5 h (36 injections), while the continuous injection experiment completed within ˜1 h.
Assay [2] has as its target T1, avidin (Gallus gallus, UniProt P02701).
T1 construct: purchased Sigma-Aldrich
The experiment in a line: Continuous injection ITC, single independent binding of lipoic acid to avidin. To be noted: 1 mM lipoic acid, continuous 0.1 mL/h into 25 μM avidin, 25° C., pH 6.6. The protocol:
(§1) The molecular weight of avidin (12.8 units per mg protein) was used as 66000 g/mol. […] […] HEPES (1 mM) was used as the buffer solution.
(§2) The continuous titrations were performed on a VP-ITC (Malvern Instruments, Westborough, Mass.) with a cell volume of 1.4 mL. The incremental titrations were performed on a NanoITC (TA Instruments, Lindon, Utah) with a cell volume of 1 mL. ITC experiments were carried out at 25° C. and the stirring speed was 270 rpm and 250 rpm for the continuous titration and incremental titration, respectively. For manipulating injection rate, a PHD 2000 syringe pump (Harvard Apparatus, Holliston, Mass.) was connected to the injection syringe of the VP-ITC.
Injection rate for the continuous injection mode was 0.1 mL/h. The fit for the continuous injection method was done after 12 μM of ligand was injected. […] Injection rate for the continuous injection mode is 0.1 mL/h. The fit for the continuous injection method was done after […] of ligand was injected.

Assay [3] addresses T1, avidin. To be noted: reported; pH 6.8; cited from earlier work.
For assay [4] the following is noted: Tricine pH 8.5, 25° C.; for ln K1 / ln K2: EDTA/DPTA mixture, 99% CI in parentheses; for ln K: real-time evaluation from data at inflection points, continuous 7.2 μL/min. Here is the method: The pH of these solutions was adjusted to 8.5 with 1 M NaOH solution. For the single independent binding site and two independent binding sites experiments, Tricine (20 mM) was used as a buffer solution. For the competitive binding site experiment, HEPES (20 mM) was used as a buffer solution.
The titrations were performed on a NanoITC (TA Instruments, New Castle, Del.) with gold cells with a cell volume of 1 mL. ITC experiments were carried out at 25° C. and the stirring speed was 250 rpm. For the single independent binding experiment, ligand of 20 mM in 100 μL syringe and for the competitive binding site and two independent binding sites model, ligand of 10 mM in 250 μL syringe were used. The injection rate was varied 1.7-10 μL/min for the continuous injection mode under setting tab in ITCRun software. During the equilibration, mass transfer of ligand at the tip of the injection syringe reduces the integrated heat of the first injection. The first data point for the incremental injection mode and data for the initial 10 μL of injection for the continuous injection mode is excluded for data fitting with binding models due to reduced amount of the heat flow.
By changing the concentration of EDTA and DPTA in the mixture, the various binding stoichiometry of the receptor, n and m, were simulated. […] The number of injections for the incremental injection mode experiment is 40 with an injection volume of 6 μL. Injection rate for the continuous injection mode is 7.2 μL/min.
The fit for the continuous injection method was done after 0.05 mM of ligand was injected. […] The positive peaks of the binding isotherms in the raw data (top) represent the exothermic heat of binding.

The conditions of assay [5]: 1 mM EDTA + 4 mM BaCl2, HEPES pH 8.5, 25° C.
Protocol: The pH of these solutions was adjusted to 8.5 with 1 M NaOH solution. […] For the competitive binding site experiment, HEPES (20 mM) was used as a buffer solution.
Injection rate for the continuous injection mode is 10 μL/min.
The fit for the continuous injection method was done after 0.1 mM of ligand was injected. […] The positive peaks of the binding isotherms in the raw data (top) represent the exothermic heat of binding.
For assay [6], the target named is T1, avidin. The experiment in a line: Continuous injection ITC, competitive binding of desthiobiotin to avidin mixed with lipoic acid. The note with it: pH 6.6. The protocol:
as §1, §2
[…] The fit for the continuous injection method was done after 12 μM of ligand was injected. […] […] The fit for the continuous injection method was done after […] of ligand was injected.

For assay [7], the target named is T1, avidin. The experiment in a line: Continuous injection ITC, binding of desthiobiotin to avidin, single independent binding site model. The note with it: 0.5 mM desthiobiotin, continuous 25 μL/h into 12.5 μM avidin, 25° C., pH 7.2. The protocol: as §1, §2
[8] abbreviates: continuous injection 7.2 μL/min.
[9] abbreviates: incremental, 40 injections of 6 μL.
Setting [10] is: apparent, 12.5 μM avidin mixed with 0.75 mM lipoic acid, 25° C.

T1 sequence (P02701 25-152): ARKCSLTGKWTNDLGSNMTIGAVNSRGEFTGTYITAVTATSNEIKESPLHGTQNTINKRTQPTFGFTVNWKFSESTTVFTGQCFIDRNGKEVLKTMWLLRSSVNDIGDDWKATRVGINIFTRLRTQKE

For the compound `[Ba+2].[Cl-].[Cl-]` [BaCl2, barium chloride], the K2 in assay [1] (Ba^2+ and EDTA, obtained independently by incremental injection, input for the competitive model, listed as Ba^2+) was 1.36e+06 M⁻¹. In addition, the “ln K” value in assay [1] (continuous injection 1.7 μL/min, 99% confidence interval in parentheses) is 14.15 (14.13, 14.16) and 14.11 (14.09, 14.03) and 13.73 (13.71, 13.75); in assay [1] (incremental injection, 9 injections, 99% confidence interval in parentheses), 14.26 (13.5, 16.7) and 14.14 (13.0, 16.5) and 13.99 (13.4, 14.6); in assay [1] (incremental injection, 18 injections, 99% confidence interval in parentheses), 14.07 (13.6, 14.6) and 14.05 (13.8, 14.5) and 13.88 (13.3, 14.8); in assay [1] (incremental injection, 36 injections, 99% confidence interval in parentheses) it was 14.07 (13.8, 14.4) and 14.13 (13.9, 14.4) and 14.02 (13.8, 14.3); in assay [1] (real-time evaluation from data at inflection point, continuous injection 1.7 μL/min) it was 14.22.
Regarding `O=C(O)CCCCC1CCSS1` (stereo not drawn) [Lipoic acid, α-Lipoic acid], the ΔH1 on avidin [2] was -9.95 kcal/mol. The Kd at avidin [2] (read-out: Kd1) is 520 nM; on avidin [3], 700 nM.
On to `O.O.O.O.O=[N+]([O-])[O-].O=[N+]([O-])[O-].[Ca+2]` [Ca(NO3)2, Calcium nitrate tetrahydrate], for which the “ln K1” value in assay [4] (setting [8]) was 18.11 (18.07, 18.15); in assay [4] (setting [9]), 19.50 (18.98, 20.33). Also, the “ln K2” value is 11.27 (11.25, 11.30) in assay [4] (setting [8]) and 11.42 (11.14, 11.69) in assay [4] (setting [9]). Further, the “ln K” value is listed as 12.24^g in assay [4] (association of Ca^2+ and DPTA); 18.98^f in assay [4] (association of Ca^2+ and EDTA); 20.535 (20.52, 20.55) in assay [5] (continuous injection 10 μL/min, 99% CI in parentheses); 20.47 (20.3, 20.6) in assay [5] (incremental, 20 injections of 10 μL, 99% CI in parentheses); 20.64 in assay [5] (real-time evaluation from data at inflection point, continuous injection 10 μL/min).
On avidin [6] (0.5 mM desthiobiotin, 25 μL/h into 12.5 μM avidin mixed with 0.75 mM lipoic acid, 25° C.), `C[C@@H]1NC(=O)N[C@@H]1CCCCCC(=O)O` [desthiobiotin, d-desthiobiotin] displayed a m of 0.294. For the same compound, at avidin [6] (setting [10]), the “Kd,app” value amounted to 1.04 nM and the ΔHapp was -9.74 kcal/mol. The ΔH on avidin [6] (evaluated by competitive binding method from lipoic acid and apparent parameters) is -19.7 kcal/mol. Moreover, on avidin [7], the ΔH was -17.55 kcal/mol.
